# Assay results reported in PubChem BioAssay (NCI).
# Values joined by “and” are separate entries in the source; they are usually repeats but may differ in a detail not shown here. Identical values can stand only once.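 Where inhibition never reached the appropriate level, the endpoint shown equals the highest concentration tested. Otherwise, values were interpolated linearly from a five-concentration, 48-hour dose response in 96-well plates. GI50 marks 50% less growth. TGI marks complete inhibition of growth.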
# Experiments:
# Test in all cases: inhibition of tumour cell growth, NCI panel, 48 h
# HS 578T breast = test system: HS 578T breast
# BT-549 breast = test system: BT-549 breast
# K-562 leukemia = test system: K-562 leukemia
# DU-145 prostate = test system: DU-145 prostate
# NCI/ADR-RES ovarian = test system: NCI/ADR-RES ovarian
# PC-3 prostate = test system: PC-3 prostate
# UACC-257 melanoma = test system: UACC-257 melanoma
# MDA-MB-231 breast = test system: MDA-MB-231 breast
# SK-OV-3 ovarian = test system: SK-OV-3 ovarian
# SR leukemia = test system: SR leukemia
SMILES,GI50 (HS 578T breast),TGI (HS 578T breast),GI50 (BT-549 breast),TGI (BT-549 breast),GI50 (K-562 leukemia),TGI (K-562 leukemia),GI50 (DU-145 prostate),TGI (DU-145 prostate),GI50 (NCI/ADR-RES ovarian),TGI (NCI/ADR-RES ovarian),GI50 (PC-3 prostate),TGI (PC-3 prostate),GI50 (UACC-257 melanoma),TGI (UACC-257 melanoma),GI50 (MDA-MB-231 breast),TGI (MDA-MB-231 breast),GI50 (SK-OV-3 ovarian),TGI (SK-OV-3 ovarian),GI50 (SR leukemia),TGI (SR leukemia)
COc1ccc(-c2ccc3ncc4c(c3c2)n(-c2ccc(N3CCNCC3)c(C(F)(F)F)c2)c(=O)n4C)cn1,< 0.01 µM and 0.00197 µM,0.0181 µM and 0.013 µM,< 0.01 µM and 0.00552 µM,0.0556 µM and 0.0647 µM,0.00843 µM,0.204 µM,< 0.01 µM and 0.00475 µM,0.686 µM and 0.433 µM,0.0531 µM and 0.0595 µM,1.27 µM and 0.712 µM,< 0.01 µM and 0.00281 µM,0.799 µM and 1.12 µM,0.0169 µM and 0.021 µM,0.11 µM and 0.118 µM,< 0.01 µM and 0.00601 µM,0.823 µM and 0.446 µM,< 0.01 µM and 0.006 µM,0.0183 µM and 0.0462 µM,0.02 µM and 0.00681 µM,0.266 µM and 0.365 µM
Nc1ccc(-c2ccc(Nc3cc(S(=O)(=O)O)c(N)c4c3C(=O)c3ccccc3C4=O)cc2)c(S(=O)(=O)O)c1,–,> 100 µM,–,> 100 µM,–,> 100 µM,–,> 100 µM,–,> 100 µM,–,> 100 µM,–,> 100 µM,–,> 100 µM,–,> 100 µM,–,> 100 µM
CC(C)[C@](O)(C(=O)OCC1=CC[N+]2([O-])CC[C@@H](O)[C@@H]12)[C@H](C)O (stereo partly drawn),–,> 10000 µM,–,> 10000 µM,–,> 10000 µM,–,> 10000 µM,–,> 10000 µM,–,> 10000 µM,–,> 10000 µM,–,> 10000 µM,–,> 10000 µM,–,> 10000 µM
CSC1=Nc2c(c(C)c(-c3ccccc3)n2CCCCl)C2=NC(=O)CN12,6.3 µM,35 µM,4.93 µM,35.6 µM,5.77 µM,> 100 µM,11.5 µM,26.7 µM,4.29 µM,> 100 µM,8.68 µM,> 100 µM,12.5 µM,28.4 µM,5.64 µM,23.8 µM,–,–,3.45 µM,> 100 µM
Cc1coc2c1CC1OC1(C)CCC1OC1(C)C2 (stereo not drawn),–,> 100 µM,–,> 100 µM,–,> 100 µM,–,> 100 µM,–,> 100 µM,–,> 100 µM,–,> 100 µM,–,> 100 µM,–,> 100 µM,–,> 100 µM
COc1cc(CNc2nc3cc(N)cc(N)c3nc2-c2ccccc2)cc(OC)c1OC,3 µM,33.4 µM,3.84 µM,11.2 µM,1.76 µM,> 50 µM,5.24 µM,20 µM,10.2 µM,21.8 µM,2.18 µM,> 50 µM,3.45 µM,10.8 µM,7.3 µM,15.2 µM,5.36 µM,13.9 µM,0.897 µM,> 50 µM
[C-]#[O+].[C-]#[O+].[Ir].[O-]c1ccc2ccccc2c1N=Nc1ccccc1,–,> 100 µM,–,40.1 µM,–,80.4 µM,–,31.9 µM,–,51.8 µM,–,54 µM,–,14.4 µM,–,40.7 µM,–,> 68 µM,–,> 56.4 µM
C/C(=C1/N=C(c2ccccc2)OC1=O)c1ccc(C)cc1,–,> 100 µM,–,> 100 µM,–,> 100 µM,–,> 100 µM,–,–,–,> 100 µM,–,> 100 µM,–,> 100 µM,–,> 100 µM,–,> 100 µM
COc1ccc2c(O)c(/C=C3\N=Nc4ncccc43)oc2c1C[C@H]1CCNC[C@H]1F,0.16 µM,5.34 µM,0.211 µM,2.3 µM,0.436 µM,27.4 µM,0.753 µM,12 µM,3.37 µM,28.9 µM,0.267 µM,11.1 µM,2.66 µM,10.2 µM,0.184 µM,3.02 µM,1.57 µM,9.05 µM,0.03 µM,3.18 µM
COc1cc(/C=C/C(=O)NC[C@]2(O)CCC3C4CCc5cc(O)ccc5C4CCC32C)ccc1O (stereo partly drawn),67.6 µM,> 100 µM,5.54 µM,52.1 µM,3.74 µM,28.4 µM,23.9 µM,> 100 µM,9.89 µM,54.3 µM,5.2 µM,> 100 µM,39.5 µM,> 100 µM,18 µM,> 100 µM,82.6 µM,> 100 µM,1.53 µM,59.7 µM
C[C@@H]1[C@H]2[C@H](C=C3[C@@H]4CC[C@H]5Cc6nc7c(nc6C[C@]5(C)[C@H]4C[C@@H](O)[C@@]32C)C[C@@H]2CC[C@H]3C4=C[C@@H]5O[C@@]6(CC[C@](C)(CO)O6)[C@@H](C)[C@@]5(O)[C@@]4(C)[C@H](O)C[C@@H]3[C@@]2(C)C7)O[C@]12CCC(C)(C)O2,0.165 µM,0.89 µM,0.338 µM,15 µM,0.345 µM,2.3 µM,2.87 µM,37.2 µM,11 µM,> 100 µM,0.391 µM,6.76 µM,13.9 µM,99.2 µM,0.469 µM,2.62 µM,0.472 µM,5.29 µM,0.322 µM,2.9 µM
COc1cccc2c1nc1cccc(OC)c1[n+]2[O-],5.23 µM,31.2 µM,5.94 µM,28.2 µM,11.5 µM,26.6 µM,4.54 µM,16.9 µM,5.51 µM,28.4 µM,13.3 µM,37 µM,13.1 µM,35 µM,16.4 µM,41.4 µM,3.19 µM,15.7 µM,0.568 µM,4.17 µM
COc1cc2cn3c4ccc(O)cc4nc(N)c3c2cc1OC,0.626 µM,22.2 µM,1.61 µM,8.96 µM,0.0348 µM,3.6 µM,0.253 µM,5.75 µM,1.92 µM,17.3 µM,0.474 µM,14.7 µM,1.39 µM,6.94 µM,2 µM,15.6 µM,0.211 µM,10.8 µM,0.0119 µM,1.39 µM
COc1cc(-c2nc3ccccc3[nH]2)ccc1OCC(=O)N=Nc1c(O)[nH]c2ccc(Cl)cc12,–,–,1.98 µM,4.03 µM,0.454 µM,3.1 µM,1.68 µM,3.43 µM,> 100 µM,> 100 µM,1.48 µM,3.06 µM,1.91 µM,3.78 µM,0.547 µM,1.86 µM,1.9 µM,3.93 µM,0.292 µM,1.05 µM
Cc1cc(O)c(C2=NN(c3ccc(S(N)(=O)=O)cc3)C(c3ccccc3O)C2)cc1Cl (stereo not drawn),2.95 µM,10.5 µM,2.08 µM,6.11 µM,2.17 µM,7.93 µM,2.41 µM,4.95 µM,2.82 µM,8.84 µM,1.33 µM,3.26 µM,3.45 µM,8.74 µM,1.91 µM,5.11 µM,3.86 µM,13.2 µM,2.22 µM,26.7 µM
COc1cc([N+](=O)[O-])c(S(=O)(=O)O)cc1N,–,> 100 µM,–,> 100 µM,–,> 100 µM,–,> 100 µM,–,> 100 µM,–,> 100 µM,–,> 100 µM,–,> 100 µM,–,> 100 µM,–,> 100 µM
C[n+]1c2cc(N)ccc2cc2ccc(N)cc21 (tested in a mixture with another compound),0.687 µM,3.56 µM,0.624 µM,5.25 µM,0.2 µM,1.25 µM,0.584 µM,4.88 µM,0.746 µM,4.84 µM,0.332 µM,12.9 µM,0.337 µM,2.04 µM,0.618 µM,2.5 µM,1.35 µM,6.15 µM,0.169 µM,0.537 µM
CCOC(=O)/C(=C/c1ccccc1)C(=O)c1ccccc1,3.03 µM,18.8 µM,6.29 µM,19.6 µM,–,–,5.32 µM,17.4 µM,3.6 µM,70 µM,4.6 µM,22.7 µM,2.52 µM,10.1 µM,3.06 µM,12 µM,14.4 µM,27.9 µM,3.43 µM,18 µM
CCc1nc(-n2c(CC)nc3ccccc3c2=O)nc(N)c1-c1ccc(Cl)cc1,48.4 µM,> 100 µM,> 100 µM,> 100 µM,17.6 µM,> 100 µM,> 76.5 µM,> 100 µM,7.17 µM,> 100 µM,5.74 µM,> 100 µM,13 µM,> 94.3 µM,> 100 µM,> 100 µM,> 100 µM,> 100 µM,> 100 µM,> 100 µM
Clc1nc(Cl)c2ncn(C/C=C/Cn3cnc4c(Cl)nc(Cl)nc43)c2n1,14.6 µM,35.1 µM,16.7 µM,31.3 µM,15.5 µM,55.8 µM,15.2 µM,28.6 µM,20.1 µM,44.6 µM,17.5 µM,33.2 µM,11 µM,27.8 µM,21.2 µM,38 µM,44.3 µM,> 100 µM,14.9 µM,32.2 µM
CCN1CCC2(CC1)NC(=O)c1c(c3ccc(Cl)c(Cl)c3n1C)C2C#N (stereo not drawn),1.81 µM,5.57 µM,3.61 µM,15.2 µM,2.19 µM,6.21 µM,–,–,3.6 µM,13.6 µM,> 100 µM,> 100 µM,1.84 µM,3.96 µM,1.97 µM,4.43 µM,6.99 µM,22.2 µM,1.76 µM,5.69 µM
Cc1c2cnccc2c(C)c2c1c1cc(C(=O)O)ccc1n2C,0.891 µM,4.82 µM,1.47 µM,4.82 µM,1.28 µM,> 100 µM,1.14 µM,5.96 µM,0.764 µM,5.5 µM,1.68 µM,8.09 µM,1.12 µM,4.84 µM,1.51 µM,5.81 µM,0.905 µM,7.63 µM,0.435 µM,3.98 µM
O=C(Nc1ccc(Cl)cc1F)c1cc(F)ccc1O,0.718 µM,5.3 µM,0.83 µM,4.02 µM,0.609 µM,> 100 µM,1.24 µM,> 46.3 µM,1.63 µM,7.1 µM,1.49 µM,6.73 µM,0.853 µM,7.2 µM,0.761 µM,3.81 µM,1.25 µM,10.4 µM,0.752 µM,> 100 µM
Cc1cc(C(=O)N[C@@H](CCC(=O)O)C(=O)O)sc1CC[C@@H]1CNc2nc(N)[nH]c(=O)c2C1,0.114 µM,> 100 µM,0.0883 µM,> 100 µM,< 0.01 µM,> 100 µM,< 0.0104 µM,> 100 µM,0.0481 µM,> 100 µM,< 0.01 µM,> 100 µM,0.0559 µM,> 100 µM,5.56 µM,> 100 µM,< 0.0205 µM,> 100 µM,< 0.01 µM,> 100 µM
CN1C(=O)N(C)C2C1NN=c1s/c(=C\c3c[nH]c4ccccc34)c(=O)n12 (stereo not drawn),0.0342 µM,> 90.9 µM,0.0557 µM,> 100 µM,0.0312 µM,> 100 µM,0.0428 µM,> 28.9 µM,0.034 µM,–,0.0413 µM,> 100 µM,> 100 µM,> 100 µM,0.0671 µM,> 100 µM,0.082 µM,> 100 µM,0.0345 µM,> 100 µM
CC(N)(Cc1c[nH]c2ccccc12)C(=O)O (stereo not drawn),1090 µM,> 2500 µM,> 2500 µM,> 2500 µM,> 2500 µM,> 2500 µM,> 2500 µM,> 2500 µM,> 2500 µM,> 2500 µM,> 2500 µM,> 2500 µM,> 2500 µM,> 2500 µM,> 2500 µM,> 2500 µM,> 2500 µM,> 2500 µM,> 2500 µM,> 2500 µM
COc1ccc2c(c1)CC[C@@H]1[C@@H]2CC[C@]2(C)c3[nH]ncc3C[C@@H]12,17.5 µM,> 50 µM,26 µM,> 50 µM,–,–,20.6 µM,> 50 µM,15.8 µM,> 50 µM,18.2 µM,> 50 µM,11.3 µM,29.4 µM,11.5 µM,> 50 µM,35.7 µM,> 50 µM,2.14 µM,15.3 µM
